Reference: ChEMBL document CHEMBL1138126, “Tyrosine kinase inhibitors. 19. 6-Alkynamides of 4-anilinoquinazolines and 4-anilinopyrido[3,4-d]pyrimidines as irreversible inhibitors of the erbB family of tyrosine kinase receptors” (J Med Chem, 2006)
Active and inactive are the calls of the source. The calls are words filed in the database; no cut-off is given here.

Experiments:
[1] = target: Receptor tyrosine-protein kinase erbB-4 (Homo sapiens, UniProt Q15303)
Description: Inhibition of erbB4 fusion protein expressed in baculovirus by ELISA

[2] = Tmax in monkey at 30 mg/kg, po; assay type: ADME, organism-based, Macaca mulatta; parameters: dose 30 mg/kg, route oral; settings: rhesus monkey, in vivo
[3] = Half life in rat at 5 mg/kg, iv; assay type: ADME, organism-based; parameters: dose 5 mg/kg, route intravenous; settings: in vivo
Mus musculus [4] = test: Antitumor activity in SCID mice implanted with SF 767 xenografts at 40 mg/kg, po; assay type: functional, organism-based; parameters: dose 40 mg/kg; settings: CB17
[5] = AUC(0-tz) in monkey at 5 mg/kg, iv; assay type: ADME, organism-based, Macaca mulatta; parameters: dose 5 mg/kg, route intravenous; settings: rhesus monkey, plasma
Mus musculus [6] = test: Antitumor activity in NCr nu/nu mice implanted with SKOV3 xenografts at 40 mg/kg, po; assay type: functional, organism-based; parameters: dose 40 mg/kg
[7] = Oral bioavailability in rat at 15 mg/kg; assay type: ADME, organism-based; settings: in vivo
Mus musculus [8] = test: Antitumor activity in NCr nu/nu mice implanted with H125 NSC xenografts at 40 mg/kg, po; assay type: functional, organism-based; parameters: dose 40 mg/kg
[9] = Plasma clearance in monkey at 5 mg/kg, iv; assay type: ADME, organism-based, Macaca mulatta; parameters: dose 5 mg/kg, route intravenous; settings: rhesus monkey
[10] = target: T1, Receptor tyrosine-protein kinase erbB-2 (Homo sapiens, UniProt P04626)
T1 sequence (P04626 whole entry): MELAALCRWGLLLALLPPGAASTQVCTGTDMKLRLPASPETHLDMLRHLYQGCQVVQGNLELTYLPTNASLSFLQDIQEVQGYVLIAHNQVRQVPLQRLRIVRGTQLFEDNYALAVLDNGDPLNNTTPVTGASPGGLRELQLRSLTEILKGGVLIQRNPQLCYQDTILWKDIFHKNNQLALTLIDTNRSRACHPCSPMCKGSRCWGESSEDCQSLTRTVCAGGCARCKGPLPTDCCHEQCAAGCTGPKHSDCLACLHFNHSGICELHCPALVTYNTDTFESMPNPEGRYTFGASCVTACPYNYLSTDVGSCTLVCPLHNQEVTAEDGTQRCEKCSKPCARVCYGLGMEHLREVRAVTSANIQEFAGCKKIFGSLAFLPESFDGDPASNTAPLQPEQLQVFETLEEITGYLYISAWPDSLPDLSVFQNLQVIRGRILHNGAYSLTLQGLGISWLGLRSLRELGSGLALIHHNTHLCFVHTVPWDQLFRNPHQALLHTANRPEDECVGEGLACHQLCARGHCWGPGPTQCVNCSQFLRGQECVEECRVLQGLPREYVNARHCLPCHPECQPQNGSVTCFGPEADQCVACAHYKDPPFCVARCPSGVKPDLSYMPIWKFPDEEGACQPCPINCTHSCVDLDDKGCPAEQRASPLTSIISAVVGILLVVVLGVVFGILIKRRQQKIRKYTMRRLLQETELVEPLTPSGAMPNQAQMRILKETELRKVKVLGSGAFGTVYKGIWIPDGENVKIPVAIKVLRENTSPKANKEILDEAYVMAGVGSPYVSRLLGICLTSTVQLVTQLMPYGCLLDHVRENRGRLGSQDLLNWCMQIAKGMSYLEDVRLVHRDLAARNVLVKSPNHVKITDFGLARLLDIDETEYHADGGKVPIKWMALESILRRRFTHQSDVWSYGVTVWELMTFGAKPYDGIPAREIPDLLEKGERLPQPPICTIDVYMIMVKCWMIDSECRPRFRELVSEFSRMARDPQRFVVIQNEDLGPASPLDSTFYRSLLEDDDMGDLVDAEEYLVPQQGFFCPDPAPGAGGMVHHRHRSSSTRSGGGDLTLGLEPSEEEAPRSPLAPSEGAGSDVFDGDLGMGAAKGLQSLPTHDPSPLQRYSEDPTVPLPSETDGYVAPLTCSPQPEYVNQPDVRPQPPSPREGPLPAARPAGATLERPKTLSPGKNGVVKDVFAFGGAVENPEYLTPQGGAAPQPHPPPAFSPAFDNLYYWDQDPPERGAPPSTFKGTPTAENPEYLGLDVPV
Description: Inhibition of ligand stimulated erbB2 autophosphorylation in T24 NIH cells

[11] = AUC(0-tz) in rat at 15 mg/kg, po; assay type: ADME, organism-based; parameters: dose 15 mg/kg, route oral; settings: plasma
Mus musculus [12] = test: Antitumor activity in SCID mice implanted with BXPC3 xenografts at 40 mg/kg, po; assay type: functional, organism-based; parameters: dose 40 mg/kg; settings: CB17
Mus musculus [13] = test: Antitumor activity in NCr nu/nu mice implanted with A431 xenografts at 10 mg/kg, po; assay type: functional, organism-based; parameters: dose 10 mg/kg
[14] = Tmax in dog at 15 mg/kg, po; assay type: ADME, organism-based, Canis lupus familiaris; parameters: dose 15 mg/kg, route oral; settings: in vivo
[15] = Volume of distribution in monkey at 5 mg/kg, iv; assay type: ADME, organism-based, Macaca mulatta; parameters: dose 5 mg/kg, route intravenous; settings: rhesus monkey, in vivo, read-out: Vdss
[16] = Cmax in rat at 15 mg/kg, po; assay type: ADME, organism-based; parameters: dose 15 mg/kg, route oral; settings: in vivo
[17] = Cmax in dog at 15 mg/kg, po; assay type: ADME, organism-based, Canis lupus familiaris; parameters: dose 15 mg/kg, route oral; settings: in vivo
[18] = Plasma clearance in dog at 5 mg/kg, iv; assay type: ADME, organism-based, Canis lupus familiaris; parameters: dose 5 mg/kg, route intravenous
[19] = target: Platelet-derived growth factor receptor (Homo sapiens, UniProt P09619+P16234); test: Inhibition of PDGF receptor; assay type: protein-complex assay
[20] = Oral bioavailability in dog at 15 mg/kg; assay type: ADME, organism-based, Canis lupus familiaris; settings: in vivo
[21] = Half life in monkey at 5 mg/kg, iv; assay type: ADME, organism-based, Macaca mulatta; parameters: dose 5 mg/kg, route intravenous; settings: rhesus monkey, in vivo
[22] = Oral bioavailability in monkey at 30 mg/kg; assay type: ADME, organism-based, Macaca mulatta; settings: rhesus monkey, in vivo
[23] = target: Fibroblast growth factor receptor (Homo sapiens, UniProt P22607+P11362+P22455+P21802); test: Inhibition of FGFR; assay type: protein assay
[24] = Plasma clearance in rat at 5 mg/kg, iv; assay type: ADME, organism-based; parameters: dose 5 mg/kg, route intravenous
[25] = AUC(0-tz) in rat at 5 mg/kg, iv; assay type: ADME, organism-based; parameters: dose 5 mg/kg, route intravenous; settings: plasma
[26] = target: T1, Receptor tyrosine-protein kinase erbB-2; remark: listed apart in the source
Description: Inhibition of HER stimulated human erbB autophosphorylation in MDA-MB-453 cells

[27] = Volume of distribution in rat at 5 mg/kg, iv; assay type: ADME, organism-based; parameters: dose 5 mg/kg, route intravenous; settings: in vivo, read-out: Vdss
[28] = Volume of distribution in dog at 5 mg/kg, iv; assay type: ADME, organism-based, Canis lupus familiaris; parameters: dose 5 mg/kg, route intravenous; settings: in vivo, read-out: Vdss
[29] = AUC(0-tz) in monkey at 30 mg/kg, po; assay type: ADME, organism-based, Macaca mulatta; parameters: dose 30 mg/kg, route oral; settings: rhesus monkey, plasma
[30] = AUC(0-tz) in dog at 15 mg/kg, po; assay type: ADME, organism-based, Canis lupus familiaris; parameters: dose 15 mg/kg, route oral; settings: plasma
[31] = target: T1, Receptor tyrosine-protein kinase erbB-2; remark: listed apart in the source
Description: Inhibition of erbB2 fusion protein expressed in baculovirus by ELISA

Insulin receptor = Insulin receptor (Homo sapiens, UniProt P06213); test: Inhibition of insulin receptor
Sequence of Insulin receptor (P06213 28-758 limits assumed): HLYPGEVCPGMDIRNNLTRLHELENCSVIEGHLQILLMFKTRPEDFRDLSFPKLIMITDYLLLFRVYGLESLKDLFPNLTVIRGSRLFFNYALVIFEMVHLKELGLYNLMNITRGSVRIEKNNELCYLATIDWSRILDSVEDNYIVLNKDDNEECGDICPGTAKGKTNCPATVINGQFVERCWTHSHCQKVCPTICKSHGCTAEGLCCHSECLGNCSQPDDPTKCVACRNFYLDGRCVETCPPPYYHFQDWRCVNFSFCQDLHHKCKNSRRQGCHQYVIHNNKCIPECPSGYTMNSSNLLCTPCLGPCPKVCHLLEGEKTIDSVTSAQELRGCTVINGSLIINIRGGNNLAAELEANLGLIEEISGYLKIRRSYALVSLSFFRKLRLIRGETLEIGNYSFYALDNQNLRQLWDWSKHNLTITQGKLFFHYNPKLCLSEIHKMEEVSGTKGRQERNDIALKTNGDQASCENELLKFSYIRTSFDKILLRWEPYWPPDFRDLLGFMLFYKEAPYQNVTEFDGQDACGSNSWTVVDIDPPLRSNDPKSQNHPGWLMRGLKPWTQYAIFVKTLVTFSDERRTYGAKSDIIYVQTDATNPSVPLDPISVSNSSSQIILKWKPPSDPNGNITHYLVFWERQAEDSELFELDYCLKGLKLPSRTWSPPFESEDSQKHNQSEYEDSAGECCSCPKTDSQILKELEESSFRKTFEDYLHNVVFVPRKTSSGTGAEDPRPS
Sequence of Insulin receptor (P06213 763-1382 limits assumed): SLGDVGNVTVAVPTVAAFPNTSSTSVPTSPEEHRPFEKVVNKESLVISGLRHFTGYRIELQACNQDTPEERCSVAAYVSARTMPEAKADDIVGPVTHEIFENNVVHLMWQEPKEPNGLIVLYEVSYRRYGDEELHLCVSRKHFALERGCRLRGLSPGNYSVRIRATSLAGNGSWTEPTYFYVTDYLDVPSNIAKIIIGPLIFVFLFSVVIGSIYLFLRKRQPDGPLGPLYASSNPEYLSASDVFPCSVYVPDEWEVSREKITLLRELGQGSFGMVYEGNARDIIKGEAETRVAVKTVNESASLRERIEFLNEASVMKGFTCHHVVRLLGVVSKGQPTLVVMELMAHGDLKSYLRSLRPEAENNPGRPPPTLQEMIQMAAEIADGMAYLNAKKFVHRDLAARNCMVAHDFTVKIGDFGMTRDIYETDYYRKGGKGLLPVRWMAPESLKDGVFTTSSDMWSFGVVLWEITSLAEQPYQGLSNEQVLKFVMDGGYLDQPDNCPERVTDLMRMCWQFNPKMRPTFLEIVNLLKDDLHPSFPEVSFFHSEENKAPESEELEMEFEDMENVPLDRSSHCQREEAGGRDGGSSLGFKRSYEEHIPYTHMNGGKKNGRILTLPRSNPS

[32] = Tmax in rat at 15 mg/kg, po; assay type: ADME, organism-based; parameters: dose 15 mg/kg, route oral; settings: in vivo
[33] = Half life in dog at 5 mg/kg, iv; assay type: ADME, organism-based, Canis lupus familiaris; parameters: dose 5 mg/kg, route intravenous; settings: in vivo
[34] = Cmax in monkey at 30 mg/kg, po; assay type: ADME, organism-based, Macaca mulatta; parameters: dose 30 mg/kg, route oral; settings: rhesus monkey, in vivo
[35] = AUC(0-tz) in dog at 5 mg/kg, iv; assay type: ADME, organism-based, Canis lupus familiaris; parameters: dose 5 mg/kg, route intravenous; settings: plasma
[36] = target: T2, Epidermal growth factor receptor (Homo sapiens, UniProt P00533); test: Inhibition of EGF stimulated human erbB1 autophosphorylation in NIH3T3 cells
T2 sequence (P00533 whole entry, the tested form may be a part): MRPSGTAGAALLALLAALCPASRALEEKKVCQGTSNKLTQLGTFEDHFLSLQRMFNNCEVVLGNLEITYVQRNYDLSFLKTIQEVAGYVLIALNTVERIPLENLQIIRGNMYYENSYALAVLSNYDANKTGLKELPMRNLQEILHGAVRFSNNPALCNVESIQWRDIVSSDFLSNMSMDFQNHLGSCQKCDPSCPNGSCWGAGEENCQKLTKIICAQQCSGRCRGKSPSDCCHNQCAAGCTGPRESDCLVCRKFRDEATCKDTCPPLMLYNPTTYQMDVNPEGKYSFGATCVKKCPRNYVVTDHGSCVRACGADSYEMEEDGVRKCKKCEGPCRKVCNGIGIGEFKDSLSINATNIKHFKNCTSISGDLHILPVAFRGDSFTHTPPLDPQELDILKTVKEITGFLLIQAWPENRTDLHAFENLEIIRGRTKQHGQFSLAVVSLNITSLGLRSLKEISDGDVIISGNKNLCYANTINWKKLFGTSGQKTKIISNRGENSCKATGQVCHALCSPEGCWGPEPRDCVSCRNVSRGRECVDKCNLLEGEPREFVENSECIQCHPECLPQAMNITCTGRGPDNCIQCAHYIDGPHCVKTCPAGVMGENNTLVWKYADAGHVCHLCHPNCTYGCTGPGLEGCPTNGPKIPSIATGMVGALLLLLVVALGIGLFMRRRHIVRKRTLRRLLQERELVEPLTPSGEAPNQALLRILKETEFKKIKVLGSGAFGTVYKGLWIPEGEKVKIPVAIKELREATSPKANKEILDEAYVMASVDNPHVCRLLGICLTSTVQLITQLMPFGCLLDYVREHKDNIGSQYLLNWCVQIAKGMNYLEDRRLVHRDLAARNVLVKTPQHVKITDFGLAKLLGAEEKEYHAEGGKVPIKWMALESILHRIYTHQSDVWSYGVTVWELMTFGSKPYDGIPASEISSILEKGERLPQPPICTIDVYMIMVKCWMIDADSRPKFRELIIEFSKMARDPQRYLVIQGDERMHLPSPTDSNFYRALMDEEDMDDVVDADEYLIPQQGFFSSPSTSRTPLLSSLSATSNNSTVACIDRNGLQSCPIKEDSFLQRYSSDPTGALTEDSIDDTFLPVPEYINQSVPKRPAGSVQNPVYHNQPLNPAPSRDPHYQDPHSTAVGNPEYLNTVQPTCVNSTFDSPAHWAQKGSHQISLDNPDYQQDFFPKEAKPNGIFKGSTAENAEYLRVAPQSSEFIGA

[37] = target: T2, Epidermal growth factor receptor; test: Inhibition of erbB1 fusion protein expressed in baculovirus by ELISA

Sequence of Receptor tyrosine-protein kinase erbB-4 (Q15303 whole entry): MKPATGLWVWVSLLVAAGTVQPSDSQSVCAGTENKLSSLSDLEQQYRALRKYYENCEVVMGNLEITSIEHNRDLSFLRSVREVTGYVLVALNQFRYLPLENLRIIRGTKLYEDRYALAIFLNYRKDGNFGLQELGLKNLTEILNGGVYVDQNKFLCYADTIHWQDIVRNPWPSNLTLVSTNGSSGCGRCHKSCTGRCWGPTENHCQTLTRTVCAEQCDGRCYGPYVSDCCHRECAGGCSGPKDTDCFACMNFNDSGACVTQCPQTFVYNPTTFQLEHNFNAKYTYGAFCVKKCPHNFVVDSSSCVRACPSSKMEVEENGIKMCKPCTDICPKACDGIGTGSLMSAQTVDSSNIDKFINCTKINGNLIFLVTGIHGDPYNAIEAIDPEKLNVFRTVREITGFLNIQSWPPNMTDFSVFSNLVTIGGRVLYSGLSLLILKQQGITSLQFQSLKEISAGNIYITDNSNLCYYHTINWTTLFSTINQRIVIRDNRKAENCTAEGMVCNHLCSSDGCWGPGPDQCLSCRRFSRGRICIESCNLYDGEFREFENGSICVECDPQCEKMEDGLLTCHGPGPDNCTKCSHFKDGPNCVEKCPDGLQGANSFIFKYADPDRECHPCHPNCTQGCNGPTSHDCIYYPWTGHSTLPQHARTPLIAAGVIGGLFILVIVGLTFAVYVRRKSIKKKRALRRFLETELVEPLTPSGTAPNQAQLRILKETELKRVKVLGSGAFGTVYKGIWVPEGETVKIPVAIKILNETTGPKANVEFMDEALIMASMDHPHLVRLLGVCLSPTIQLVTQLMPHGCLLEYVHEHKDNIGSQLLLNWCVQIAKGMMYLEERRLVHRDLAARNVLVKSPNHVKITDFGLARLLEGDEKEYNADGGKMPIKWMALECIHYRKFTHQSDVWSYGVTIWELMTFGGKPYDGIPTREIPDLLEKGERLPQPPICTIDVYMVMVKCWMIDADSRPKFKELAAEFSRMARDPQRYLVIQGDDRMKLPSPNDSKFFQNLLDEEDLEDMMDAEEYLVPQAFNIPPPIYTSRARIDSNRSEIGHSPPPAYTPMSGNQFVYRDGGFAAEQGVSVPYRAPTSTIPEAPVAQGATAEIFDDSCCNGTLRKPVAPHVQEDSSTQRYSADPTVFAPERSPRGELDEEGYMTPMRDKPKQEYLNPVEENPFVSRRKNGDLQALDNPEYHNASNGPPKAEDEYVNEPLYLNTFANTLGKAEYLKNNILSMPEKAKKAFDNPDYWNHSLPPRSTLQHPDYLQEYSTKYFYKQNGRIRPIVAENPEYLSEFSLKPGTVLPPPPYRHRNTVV

## CN1CCN(CCC#CC(=O)Nc2cc3c(Nc4ccc(F)c(Cl)c4)ncnc3cn2)CC1
[1]
  IC50: 1.2 nM
[2]
  Tmax: 3.5 h
[3]
  half-life: 0.83 h
Mus musculus [4]
  Activity: Active
[5]
  AUC: 1190 ng·h/mL
Mus musculus [6]
  Activity: Active
[7]
  bioavailability: 11.4%
Mus musculus [8]
  Activity: Active
[9]
  clearance: 85.8 mL/min/kg
[10]
  IC50: 0.8 nM
[11]
  AUC: 240 ng·h/mL
Mus musculus [12]
  Activity: Active
Mus musculus [13]
  Activity: Active
[14]
  Tmax: 1 h
[15]
  Vd: 1.7 L/kg
[16]
  Cmax: 56.3 ng/mL
[17]
  Cmax: 4180 ng/mL
[18]
  clearance: 11.5 mL/min/kg
[19]
  IC50: > 50000 nM
[20]
  bioavailability: 67.8%
[21]
  half-life: 0.37 h
[22]
  bioavailability: 6.75%
[23]
  IC50: > 50000 nM
[24]
  clearance: 119 mL/min/kg
[25]
  AUC: 703 ng·h/mL
[26]
  IC50: 1 nM
[27]
  Vd: 3.1 L/kg
[28]
  Vd: 0.93 L/kg
[29]
  AUC: 485 ng·h/mL
[30]
  AUC: 15200 ng·h/mL
[31]
  IC50: 0.7 nM
Insulin receptor
  IC50: > 50000 nM
[32]
  Tmax: 4.7 h
[33]
  half-life: 1.86 h
[34]
  Cmax: 83.5 ng/mL
[35]
  AUC: 7470 ng·h/mL

## CC(C)N(CC#CC(=O)Nc1ccc2ncnc(Nc3ccc(F)c(Cl)c3)c2c1)C(C)C
[26]
  IC50: 65 nM
[31]
  IC50: 2.8 nM

## O=C(C#CCCN1CCOCC1)Nc1ccc2ncnc(Nc3ccc(F)c(Cl)c3)c2c1
[1]
  IC50: 4.3 nM
[26]
  IC50: 7.6 nM
[31]
  IC50: 2.3 nM
[36]
  IC50: 12 nM
[37]
  IC50: 1.7 nM

## O=C(C#CCN1CCOCC1)Nc1ccc2ncnc(Nc3ccc(F)c(Cl)c3)c2c1
[1]
  IC50: 229 nM
[26]
  IC50: 173 nM
[31]
  IC50: 300 nM
[36]
  IC50: 31 nM
[37]
  IC50: 86 nM

## O=C(C#CCO)Nc1ccc2ncnc(Nc3ccc(F)c(Cl)c3)c2c1
[1]
  IC50: 7.3 nM
[26]
  IC50: 43 nM
[31]
  IC50: 2.1 nM
[36]
  IC50: 25 nM
[37]
  IC50: 1.4 nM

## C#CC(=O)Nc1cc2c(Nc3cccc(Br)c3)ncnc2cn1
[1]
  IC50: 13 nM
[31]
  IC50: 2.4 nM
[36]
  IC50: 15 nM
[37]
  IC50: 0.6 nM

## O=C(C#CCCN1CCOCC1)Nc1cc2c(Nc3ccc(F)c(Br)c3)ncnc2cn1
[1]
  IC50: 1 nM
[26]
  IC50: 0.5 nM
[31]
  IC50: 0.7 nM
[36]
  IC50: 4.5 nM
[37]
  IC50: 1.5 nM

## C#CC(=O)Nc1ccc2ncnc(Nc3cccc(Br)c3)c2c1
[1]
  IC50: 1.7 nM
[31]
  IC50: 1.9 nM

## CCCCC#CC(=O)Nc1cc2c(Nc3ccc(F)c(Cl)c3)ncnc2cn1
[1]
  IC50: 7.1 nM
[26]
  IC50: 20 nM
[31]
  IC50: 5.4 nM
[36]
  IC50: 4.5 nM
[37]
  IC50: 15 nM

## CCCCN(CC#CC(=O)Nc1ccc2ncnc(Nc3ccc(F)c(Cl)c3)c2c1)CCCC
[1]
  IC50: 624 nM
[26]
  IC50: 32 nM
[31]
  IC50: 464 nM
[36]
  IC50: 11 nM
[37]
  IC50: 40 nM

## CCCCN(CC#CC(=O)Nc1cc2c(Nc3ccc(F)c(Cl)c3)ncnc2cn1)CCCC
[1]
  IC50: 73 nM
[26]
  IC50: 320 nM
[31]
  IC50: 67 nM
[36]
  IC50: 49 nM
[37]
  IC50: 17 nM

## O=C(C#CCCN1CCCCC1)Nc1cc2c(Nc3ccc(F)c(Cl)c3)ncnc2cn1
[1]
  IC50: 1.8 nM
[26]
  IC50: 2 nM
[31]
  IC50: 2.1 nM
[36]
  IC50: 4.3 nM
[37]
  IC50: 0.9 nM

## CCN(CC)CCC#CC(=O)Nc1ccc2ncnc(Nc3ccc(F)c(Cl)c3)c2c1
[1]
  IC50: 16 nM
[26]
  IC50: 23 nM
[31]
  IC50: 2.6 nM
[36]
  IC50: 4.5 nM
[37]
  IC50: 1.8 nM

## CCN(CC)CC#CC(=O)Nc1ccc2ncnc(Nc3ccc(F)c(Cl)c3)c2c1
[1]
  IC50: 310 nM
[26]
  IC50: 7.5 nM
[31]
  IC50: 46 nM
[36]
  IC50: 6.8 nM
[37]
  IC50: 3.1 nM

## CN1CCN(CCC#CC(=O)Nc2cc3c(Nc4ccc(F)c(Br)c4)ncnc3cn2)CC1
[1]
  IC50: 0.8 nM
[26]
  IC50: 3.5 nM
[31]
  IC50: 0.5 nM
[36]
  IC50: 2.7 nM
[37]
  IC50: 1.1 nM

## CCCC#CC(=O)Nc1cc2c(Nc3ccc(F)c(Cl)c3)ncnc2cn1
[1]
  IC50: 2.4 nM
[26]
  IC50: 170 nM
[31]
  IC50: 3.8 nM
[36]
  IC50: 9.6 nM
[37]
  IC50: 1.7 nM

## CC#CC(=O)Nc1cc2c(Nc3ccc(F)c(Cl)c3)ncnc2cn1
[1]
  IC50: 0.5 nM
[26]
  IC50: 24 nM
[31]
  IC50: 1.1 nM

## CCN(CC)CC#CC(=O)Nc1cc2c(Nc3ccc(F)c(Cl)c3)ncnc2cn1
[1]
  IC50: 644 nM
[26]
  IC50: 116 nM
[31]
  IC50: 597 nM
[36]
  IC50: 48 nM
[37]
  IC50: 15 nM

## CC(C)N(CC#CC(=O)Nc1cc2c(Nc3ccc(F)c(Cl)c3)ncnc2cn1)C(C)C
[1]
  IC50: 538 nM
[26]
  IC50: 36 nM
[31]
  IC50: > 1000 nM
[36]
  IC50: 73 nM
[37]
  IC50: 44 nM

## O=C(C#CCCN1CCOCC1)Nc1cc2c(Nc3ccc(F)c(Cl)c3)ncnc2cn1
[1]
  IC50: 1 nM
[26]
  IC50: 5 nM
[31]
  IC50: 0.8 nM
[36]
  IC50: 1.8 nM
[37]
  IC50: 1.3 nM

## CC#CC(=O)Nc1ccc2ncnc(Nc3cccc(Br)c3)c2c1
[1]
  IC50: 12 nM
[31]
  IC50: 17 nM

## O=C(C#CCN1CCOCC1)Nc1cc2c(Nc3ccc(F)c(Cl)c3)ncnc2cn1
[1]
  IC50: 6.2 nM
[26]
  IC50: 22 nM
[31]
  IC50: 26 nM
[36]
  IC50: 14 nM
[37]
  IC50: 3.1 nM
